Experimental data reported in patent publication US11945779B2, “Inhibitors of cancer metastasis through inhibiting migration and invasion of cancer cells” (VSpharmtech, priority 2018, dated 2024).

Tests used:
[1] = test system: pancreatic cancer cell line AsPc-1; experiment: Trans-well cancer cell migration inhibition, AsPc-1; type: cell-based; settings: Homo sapiens, ASPC1; Pancreatic cancer cell line AsPc-1; read-out: Concentration inhibiting migration of cancer cells by 50% (IC50 value)
Method: (§1) In order to analyze cancer cell migration inhibitory activity of CG-608, CG-609 or CG-618 prepared in Examples 1, 2, or 9, cell migration inhibitory activity was measured using a trans-well by targeting a colon cancer cell line DLD-1 (ATCC-CCL-221), pancreatic cancer cell lines AsPc-1 (ATCC-CCL-1682). CFPAC-1 (ATCC-CCL-1918). Panc-1 (ATCC-CCL-1469), and Miapaca-2 (ATCC-CCL-1420), a skin cancer cell line A375-P (ATCC-CCL-3224), lung cancer cell lines HCC-827 (ATCC-CCL-2868), A549 (ATCC-CCL-185), and NCI-H460 (ATCC-CCL-177), a prostate cancer cell line DU145 (ATCC-HTB-81), a stomach cancer cell line NuGC-3 (JCRB0822), and an ovarian cancer cell line SKOV-3 (ATCC-HTB-77).
(§2) First, the number of DLD-1 cells was measured using a hemocytometer in an RPMI medium without FBS. Thereafter, the trans-well was placed on a 24-well plate and 8×10^4 […] of cells were added. In an empty space with the trans-well on the well plate, […] of an RPM medium having 10% FBS containing CG-608, CG-609, or CG-618 was added and cultured in a CO2 incubator at 37° C. for 16 hours. After culture, […] of crystal violet (5 mg/mL of 20% […] was added to each well of the 24-well plate and the trans-well was dyed at room temperature for 30 minutes. The dyed trans-well was washed with PBS and non-migrated cells were wiped off with cotton swabs. The prepared sample was photographed with an inverted microscope mounted with a digital camera (TE 300, Nikon. Japan) and then the number of migrated cells was counted. The degree of inhibiting cell migration was calculated by Equation 1 for a group treated with the sample compared to a control group (DMSO).
(§3) In Equation 1, ‘the number of migrated cells treated with sample’ refers to the number of migrated cells measured by treating CG-608 or CG-618 of Example 1, and ‘the number of migrated cells of a control sample’ refers to the number of migrated cells measured by treating only 1% dimethyl sulfoxide (DMSO) instead of the compound.

[2] = Acute toxicity test for oral administration to rats; settings: rat, in vivo, 1000 mg/kg; SD rats, single oral dose; read-out: Minimum dose (LD50) of oral administration
Method: Six-week-old specific pathogen free (SPF) SD-based rats were divided by two per group and then CG-608, CG-609, or CG-618 prepared in Example 1, 2, or 9 was dissolved in distilled water for injection and orally administered to rats once in a dose of 1000 mg/kg.

[3] = test system: stomach cancer cell line NuGC-3; experiment: Trans-well cancer cell migration inhibition, NuGC-3; type: cell-based; settings: Homo sapiens; Gastric cancer cell NuGC-3; read-out: Concentration inhibiting migration of cancer cells by 50% (IC50 value)
Method: as §1, §2, §3

[4] = test system: prostate cancer cell line DU145; experiment: Trans-well cancer cell migration inhibition, DU145; type: cell-based; settings: Homo sapiens, DU-145; Prostate cancer cell DU145; read-out: Concentration inhibiting migration of cancer cells by 50% (IC50 value)
Method: as §1, §2, §3

[5] = test system: colon cancer cell line DLD-1; experiment: Trans-well cancer cell migration inhibition, DLD-1; type: cell-based, human; settings: Homo sapiens; Colon cancer cell DLD-1, trans-well, 16 hours; read-out: Concentration inhibiting migration of cancer cells by 50% (IC50 value)
Method: as §1, §2, §3

[6] = test system: skin cancer cell line A375-P; experiment: Trans-well cancer cell migration inhibition, A375-P; type: cell-based; settings: Homo sapiens, A375P; Skin cancer cell A375-P; read-out: Concentration inhibiting migration of cancer cells by 50% (IC50 value)
Method: as §1, §2, §3

[7] = test system: lung cancer cell line HCC-827; experiment: Trans-well cancer cell migration inhibition, HCC-827; type: cell-based; settings: Homo sapiens, HCC827; Lung cancer cell HCC-827; read-out: Concentration inhibiting migration of cancer cells by 50% (IC50 value)
Method: as §1, §2, §3

[8] = test system: colon cancer cells DLD-1; experiment: Cancer cell invasion inhibition (Matrigel trans-well), DLD-1; type: cell-based; settings: Homo sapiens, DLD-1; 5 μM
Method: In order to analyze cancer cell invasion inhibitory activity of CG-609 or CG-618 prepared in Example 1 or 9, cell invasion inhibitory activity using a trans-well was measured by targeting colon cancer cell line DLD-1 cells or pancreatic cancer cell line AsPc-1 cells.
Matrigel was diluted by 1/5 using an RPMI medium without FBS and then […] was put into each trans-well. The cells were coated in a […] for 2 hours. The number of DLD-1 cells was measured using a hemocytometer in an RPMI medium without FBS. Thereafter, the coated trans-well was placed on a 24-well plate and 8×10^4 […] of cells were added. In an empty space of the trans-well on the well plate, […] of an RPMI medium having 10% FBS containing (S)-(−)-benproperine was added and cultured in a CO2 incubator at 37° C. for 16 hours. After culture, […] of crystal violet (5 mg/mL of 20% MeOH) was added to each well of the 24-well plate and the trans-well was dyed at room temperature for 30 minutes. The dyed trans-well was washed with PBS and non-migrated cells were wiped off with cotton swabs. The prepared sample was photographed with an inverted microscope mounted with a digital camera (TE 300, Nikon, Japan), and then the number of migrated cells was counted. The degree of inhibiting cell migration was calculated for a group treated with the sample compared to a control group (DMSO).

| SMILES | IC50 [1] [nM] | LD50 [2] [mg/kg] | IC50 [3] [nM] | IC50 [4] [nM] | IC50 [5] [nM] | IC50 [6] [nM] | IC50 [7] [nM] | inhibition at 5 µM [8] [%] |
| --- | --- | --- | --- | --- | --- | --- | --- | --- |
| CC1CCCCN1[C@@H](C)COc1ccccc1Cc1ccccc1 (stereo partly drawn) [CG-608, 1-((S)-1-(2-benzylphenoxy)propan-2-yl)-2-methylpiperidine] | 250 | ≥ 1000 | 2000 | 5000 | 200 | 1500 | 1500 | – |
| CC(COc1ccccc1Cc1ccccc1)N1CCCCC1 (centres unmarked) [benproperine, reference compound] | 3000 | – | < 20000 | 20000 | 2000 | 7000 | 20000 | 50 |
